Data published in patent US20160025704A1, “METHODS FOR IDENTIFYING NEUROPROTECTIVE PKC ACTIVATORS” (priority 2013, published 2016).

Key:
PKC-ε = target: T1, PKC-ε (Homo sapiens, UniProt Q02156); assay: Activation of purified PKC isozymes; assay type: biochemical; details: purified PKC isozymes (9 ng), preincubated 5 minutes at room temperature
T1 sequence (Q02156 1-737): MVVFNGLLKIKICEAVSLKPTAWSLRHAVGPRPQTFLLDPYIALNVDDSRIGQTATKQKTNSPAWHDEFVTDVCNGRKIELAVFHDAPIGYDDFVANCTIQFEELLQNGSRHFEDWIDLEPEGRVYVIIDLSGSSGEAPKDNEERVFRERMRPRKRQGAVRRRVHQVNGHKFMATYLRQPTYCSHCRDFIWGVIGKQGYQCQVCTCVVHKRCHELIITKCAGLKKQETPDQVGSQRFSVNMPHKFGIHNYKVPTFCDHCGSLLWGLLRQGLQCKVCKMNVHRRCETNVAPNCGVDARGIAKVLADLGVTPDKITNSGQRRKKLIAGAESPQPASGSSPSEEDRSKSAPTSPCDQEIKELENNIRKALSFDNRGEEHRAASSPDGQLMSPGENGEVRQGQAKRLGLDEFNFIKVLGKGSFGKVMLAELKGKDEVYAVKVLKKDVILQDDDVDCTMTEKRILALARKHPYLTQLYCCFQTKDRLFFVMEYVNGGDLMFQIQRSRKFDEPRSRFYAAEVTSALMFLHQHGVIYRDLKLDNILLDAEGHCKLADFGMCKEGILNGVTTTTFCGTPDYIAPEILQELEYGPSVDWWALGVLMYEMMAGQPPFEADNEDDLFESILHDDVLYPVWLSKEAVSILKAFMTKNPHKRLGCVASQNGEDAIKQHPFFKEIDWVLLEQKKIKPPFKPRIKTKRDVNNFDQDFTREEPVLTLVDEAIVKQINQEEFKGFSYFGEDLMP
Description: Protocol: Purified PKC-α, βII, γ, δ, or ε (9 ng) was preincubated for 5 minutes at room temperature with the following PKC activators: (A) DHA-CP6, (B) EPA-CP5, (C) AA-CP4, (D) DCP-LA, (E) “other cyclopropaneated and epoxidized fatty acids, alcohols, and methyl esters.” followed by measurement of PKC activity as described under Experimental Procedures. Results are shown below in FIG. 6.

[1] = tested on: TA 100 cells & TA 1535 cells / TA 98 cells; assay: AMES testing, overall result (mutagenic potential); assay type: cell-based
From the text: (§1) The AMES test is a rapid screening of the mutagenic potential of chemical compounds. […] Between 50% and 70% of all known carcinogens test positive in the AMES test.

ECE [2] = assay: ECE activity in SH-SY5Y cells (fluorometric); assay type: cell-based; details: 1 μM, compared to ethanol alone
Description: (§2) Aβ can be degraded in vivo by a number of enzymes, including insulin degrading enzyme (insulysin), neprilysin, and ECE (FIG. 12). Because PKC-ε overexpression has been reported to activate ECE (Choi et al., Proc. Natl. Acad. Sci. USA. 2006; 103: 8215-20), the effect of PKC activators on ECE was analyzed. Candidate PKC activators were added to either SH-SY5Y cells (Bryo—0.27 nM, DCP-LA—1 μM, and DHA-CP6 1 μM) or cultured neurons (DHA-CP6—1 μM, EPA-CP5— 1 μM, and AA-CP4— 1 μM), and grown on either 12- or 24-well plates. After various time periods, the cells were collected and ECE activity was measured fluorometrically. Results are shown below in FIG. 13. *, p<0.05; **, p<0.001.
PKCε overexpression has been reported to activate endothelin converting enzyme (ECE). The effect of PKC activators on ECE was measured here with Bryostatin, DCP-LA, and DHA-CP6. […] Protocol: Bryostatin (0.27 nM), DCP-LA (1 μM), DHACP6 (1 μM), EPA-CP5 (1 μM), AA-CP4 (1 μM), or ethanol alone were added to SH-SYSY cells growing on 12- or 24-well plates. After various periods of time, the cells were collected and ECE activity was measured fluorometrically as showing in FIG. 34 below (* p<0.05, ** p<0.001).

ECE [3] = assay: ECE activity in cultured neurons (fluorometric); assay type: cell-based; details: 1 μM, compared to ethanol alone
Description: as §2

[4] = tested on: healthy brown Norway rats; assay: Learning, memory and mushroom spine synapses in healthy rats, water maze training; assay type: in vivo; details: PKCα inhibitor given with bryostatin and water maze training
From the text: Protocol: Non-disease, healthy brown Norway rats (at 4-5 months old) were used in this study. […] (Nv=naîve controls; Sw=swim controls; Mz=water maze treatment; and Mz/Br=water maze treatment plus bryostatin treatment).

sAPP-α = sAPP-α secretion in an Alzheimer's disease cell line; assay type: cell-based, human; details: 100 nM pretreatment, bryostatin 0.1 nM
Description: Protocol: An Alzheimer's disease cell line was incubated with bryostatin (0.1 nM), Benzolactam (0.1 nM or 1.0 μM), DMSO, pre-treated with staurosporin (100 nM) plus bryostatin (0.1 nM) for three hours. […] The graph units are relative to the vehicle, DMSO, alone (1).

TA 1535 Cells = assay: AMES test, TA1535 cells; assay type: cell-based; details: plate count
From the text: as §1

[5] = Internal toxicity study: Clinical Chemistry Panel & Hematology Panel; assay type: in vivo; details: in vivo
Description: Internal tests measuring various biological markers were performed 24 hours after administering a PKC activator (bryostatin, cyclopropanated arachidonic acid, DCPLA, and DHACP6) at 10× the therapeutic dose. The results are shown below in Tables 5-7.

**Q.** Which “PKC-ε specificity versus PKC-α and PKC-δ” value (PKC-ε) does the source give for `CCC1CC1CC1CC1CC1CC1CC1CC1CC1CC1CC1CC1CCC(=O)OC` (centres unmarked) [DHA-CP6-methyl ester] here?
**A.** Its value is “PKC-ε specificity ±15% PKC-α and PKC-δ”.

**Q.** For `CCC1CC1CC1CC1CC1CC1CC1CC1CC1CC1CC1CC1CCC(=O)O` (centres unmarked) [DHA-CP6], which AMES testing result [1] is on record?
**A.** Its AMES testing result is “not mutagenic”.

**Q.** What about the “Result (Mutagenic Potential)” value [1] of the same compound?
**A.** Its value is “Result: Not mutagenic, p > 0.05”.

**Q.** And the ECE activity (ECE [2])?
**A.** The ECE activity was “sustained increase in ECE activity”.

**Q.** What about the ECE activity (ECE [3]) of the same compound?
**A.** The ECE activity was “increase in ECE activity”.

**Q.** For `CCC1CC1CC1CC1CC1CC1CC1CC1CC1CC1CCCC(=O)O` (centres unmarked) [EPA-CP5], which ECE activity (ECE [3]) is on record?
**A.** The ECE activity was “increase in ECE activity”.

**Q.** For `Cn1cc(C2=C(c3cn(CCCSC(=N)N)c4ccccc34)C(=O)NC2=O)c2ccccc21` [Ro 31-8220], which “effect on bryostatin-promoted induction of mushroom spine synapses” value [4] is on record?
**A.** Its value is “inhibited”.

**Q.** Which “effect of pretreatment on bryostatin-enhanced sAPP-α secretion” value (sAPP-α) does the source give for `CN[C@@H]1C[C@H]2O[C@@](C)([C@@H]1OC)n1c3ccccc3c3c4c(c5c6ccccc6n2c5c31)C(=O)NC4` [staurosporin] here?
**A.** The value was “completely abolished the effect of bryostatin”.

**Q.** What does the source list for cyclopropanated arachidonic acid?
**A.** Negative (TA 1535 Cells; 0.05 mM, TA 1535 Cells): 93; Positive (TA 1535 Cells; 0.05 mM, TA 1535 Cells): 3; Negative (TA 1535 Cells; 0.125 mM, TA1535 Cells): 95; Positive (TA 1535 Cells; 0.125 mM, TA1535 Cells): 1; Negative (TA 1535 Cells; 0.5 mM, TA1535 Cells): 94; Positive (TA 1535 Cells; 0.5 mM, TA1535 Cells): 2; Negative (TA 1535 Cells; 1 mM, TA1535 Cells): 93; Positive (TA 1535 Cells; 1 mM, TA1535 Cells): 3; AMES testing result [1]: not mutagenic; Result (Mutagenic Potential) [1]: Result: Not mutagenic, p > 0.05; ALB (Albumin) [5]: 97.0 ± 2.6; ALP (Alkaline phosphatase) [5]: 93.8 ± 6.6; ALT (Alanine aminotransferase) [5]: 92.7 ± 5.4; AST (Aspartate aminotransferase) [5]: 107.0 ± 10.3; BA (Basophils) [5]: 400.0 ± 200.0; BUN (Blood urea nitrogen) [5]: 92.0 ± 6.7; CA (Calcium) [5]: 101.0 ± 3.0; CO2-LC (Bicarbonate) [5]: 100.0 ± 5.4; CREAT (Creatinine) [5]: 92.9 ± 5.2; EO (Eosinophils) [5]: 500.0 ± 250.0; GLU (Glucose) [5]: 84.8 ± 2.4; HCT (Hematocrit) [5]: 93.3 ± 2.3; Hb (Hemoglobin) [5]: 91.7 ± 6.0; K (Potassium) [5]: 82.9 ± 3.6; LY (Lymphocytes) [5]: 124.1 ± 34.4; MCH (Mean corpuscular hemoglobin) [5]: 103.0 ± 10.7; MCV (Mean corpuscular volume) [5]: 105.0 ± 2.0; MO (Monocytes) [5]: 66.6 ± 33.3; MPV (Mean platelet volume) [5]: 82.7 ± 3.7; NA (Sodium) [5]: 99.3 ± 0.6; NE (Neutrophils) [5]: 148.3 ± 51.7; PLT (Platelet count) [5]: 164.5 ± 3.7; RBC (Red Blood Cells) [5]: 89.2 ± 3.0; TBILI (Total bilirubin) [5]: 78.2 ± 6.5; TPROT (Total protein) [5]: 91.3 ± 1.4; WBC (White blood count) [5]: 136.0 ± 42.6
